Here are results for nine compounds from patent publication US20180008587A1, “THIOHYDANTOIN ANDROGEN RECEPTOR ANTAGONISTS FOR THE TREATMENT OF CANCER” (Jaressen Pharmaceutica NV, priority 2016, published 2018).

Format in all cases: cell-based
For test [1], the target named is T1, wild-type Androgen Receptor (AR-wt) (Homo sapiens, UniProt P10275).
T1 construct: expressed in transfected cells; host or cells: LNCaP (LNCaP AR (cs))
T1 sequence (P10275 1-920): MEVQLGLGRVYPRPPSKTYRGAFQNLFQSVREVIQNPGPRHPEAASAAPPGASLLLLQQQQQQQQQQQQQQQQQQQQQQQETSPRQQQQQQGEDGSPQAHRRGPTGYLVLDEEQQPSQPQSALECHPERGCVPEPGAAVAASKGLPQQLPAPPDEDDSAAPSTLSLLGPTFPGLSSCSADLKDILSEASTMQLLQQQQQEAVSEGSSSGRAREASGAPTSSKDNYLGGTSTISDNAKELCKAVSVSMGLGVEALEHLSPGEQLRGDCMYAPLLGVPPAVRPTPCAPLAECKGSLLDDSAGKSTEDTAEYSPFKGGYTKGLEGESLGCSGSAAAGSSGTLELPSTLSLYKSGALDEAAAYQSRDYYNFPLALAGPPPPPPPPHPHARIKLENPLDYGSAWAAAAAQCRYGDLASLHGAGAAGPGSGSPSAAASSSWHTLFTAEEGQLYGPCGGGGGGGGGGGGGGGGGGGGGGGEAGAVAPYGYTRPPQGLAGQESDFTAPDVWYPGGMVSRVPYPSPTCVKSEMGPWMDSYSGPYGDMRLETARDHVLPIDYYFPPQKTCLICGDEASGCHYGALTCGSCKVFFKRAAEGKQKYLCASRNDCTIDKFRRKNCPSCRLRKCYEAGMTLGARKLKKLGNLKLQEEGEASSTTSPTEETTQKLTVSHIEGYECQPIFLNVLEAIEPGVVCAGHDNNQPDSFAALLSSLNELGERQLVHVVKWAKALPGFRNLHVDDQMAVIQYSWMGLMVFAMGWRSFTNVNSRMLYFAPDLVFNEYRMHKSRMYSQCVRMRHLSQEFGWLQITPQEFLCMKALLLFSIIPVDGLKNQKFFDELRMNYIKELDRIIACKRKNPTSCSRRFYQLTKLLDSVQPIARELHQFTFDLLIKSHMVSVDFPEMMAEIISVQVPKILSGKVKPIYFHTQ
Description: LNCaP-AR-wt ANT reporter assay (ARE firefly luciferase, antagonist mode). The conditions noted are these: for IC50: antagonist mode, 400 pM R-1881 challenge, −Log10(IC50 [Molar]), read-out: LNCaP-AR-wt ANT pIC50 (converted); for Emax: read-out: LNCaP-AR-wt ANT MAX % Inh. The gist of the method:
(§1)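 Cells: stable LNCaP pools, AR-wt or AR-F876L, in charcoal-stripped serum. Agonist challenge for antagonist mode was 400 pM (WT) and 600 pM (F876L). Luminescence was measured after 20-24 h incubation.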

Test [2] concerns the target T1, wild-type Androgen Receptor (AR-wt). The test is described as follows: LNCaP-AR-wt AG reporter assay (ARE firefly luciferase, agonist mode). As to conditions: for Emax: read-out: LNCaP-AR-wt AG MAX % Stim. The gist of the method: (§2)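 Read-out is luciferase luminescence taken 1 h after Steady-Glo addition, following 20-24 h compound exposure at 37 °C in LNCaP pools stably carrying wild-type or F876L AR. Cells were grown in charcoal-stripped serum. Antagonist wells received agonist at 400 pM (WT) or 600 pM (F876L).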
(In a reporter assay the amount or activity of a reporter protein is the signal.)

The target in test [3] is T2, F876L mutant Androgen Receptor (AR-F876L) (Homo sapiens, UniProt P10275, F877L).
T2 construct: expressed in transfected cells; host or cells: LNCaP (LNCaP F876L)
T2 sequence (P10275 1-920 F877L): T1 sequence (P10275 1-920) with F877L
Description: LNCaP-AR-F876L AG reporter assay (ARE firefly luciferase, agonist mode). As to conditions: for Emax: read-out: LNCaP-AR-F876L AG MAX % Stim. The gist of the method:
as §2

The target in test [4] is T2, F876L mutant Androgen Receptor (AR-F876L). Description: LNCaP-AR-F876L ANT reporter assay (ARE firefly luciferase, antagonist mode). The conditions noted are these: for Emax: read-out: LNCaP-AR-F876L ANT MAX % Inh; for IC50: read-out: LNCaP-AR-F876L ANT pIC50 (converted). The gist of the method: as §1
[5] abbreviates: maximum % inhibition of R1881 control response over tested concentration range.
The mark [6] stands for this setting: agonist mode, −Log10(EC50 [Molar]), read-out: LNCaP-AR-wt AG pEC50 (converted).
The mark [7] stands for this setting: agonist mode, −Log10(EC50 [Molar]), read-out: LNCaP-AR-F876L AG pEC50 (converted).
Where [8] appears, read: maximum % stimulation (agonist response) over tested concentration range.

Changes are numbered by the printed parent chain. Where two headings read alike, the source gives them in different places.

`N#Cc1ncc(N2C(=O)C3(CCC3)N(c3ccc(O)cc3F)C2=S)cc1C(F)(F)F` [Cpd 47, 5-[8-(2-fluoro-4-hydroxy-phenyl)-5-oxo-7-thioxo-6,8-diazaspiro[3.4]octan-6-yl]-3-(trifluoromethyl)pyridine-2-carbonitrile]: the IC50 in test [1] was 245 nM; in test [4], 195 nM. Further, the Emax turned out to be 101% in test [1] (setting [5]), 0.9% in test [2], 0.4% in test [3] and 99.6% in test [4] (setting [5]). Also, the EC50 in test [2] (setting [6]) and in test [3] (setting [7]) was > 15100 nM each time.

As for `Cc1cc(N2C(=O)C3(CCC3)N(c3ccc(O)cc3)C2=S)cnc1C#N` [Cpd 48, 5-[8-(4-hydroxyphenyl)-5-oxo-7-thioxo-6,8-diazaspiro[3.4]octan-6-yl]-3-methyl-pyridine-2-carbonitrile], the IC50 in test [1] was 617 nM; in test [4], 398 nM. Moreover, the Emax was 96.3% in test [1] (setting [5]), 1.1% in test [2] (setting [8]), 0.5% in test [3] (setting [8]) and 99.2% in test [4] (setting [5]). The EC50 in test [2] (setting [6]) and in test [3] (setting [7]) was > 15100 nM throughout.

For `CN1CCC(Oc2ccc(N3C(=S)N(c4cnc(C#N)c(C(F)(F)F)c4)C(=O)C34CCC4)c(F)c2)CC1` [Cpd 49, 5-[8-[2-fluoro-4-[(1-methyl-4-piperidyl)oxy]phenyl]-5-oxo-7-thioxo-6,8-diazaspiro[3.4]octan-6-yl]-3-(trifluoromethyl)pyridine-2-carbonitrile], the IC50 in test [1] was 501 nM; in test [4], 257 nM. Also, the Emax in test [1] (setting [5]) was found to be 101%; in test [2] (setting [8]), 0.6%; in test [3] (setting [8]), 0.5%; in test [4] (setting [5]), 96.5%. Further, the EC50 in test [2] (setting [6]) and in test [3] (setting [7]) was > 15100 nM in each case.

Consider `Cc1ccc(-c2ccc(N3C(=S)N(c4cnc(C#N)c(C)c4)C(=O)C34CCC4)cc2)o1` [Cpd 50, 3-methyl-5-[8-[4-(5-methyl-2-furyl)phenyl]-5-oxo-7-thioxo-6,8-diazaspiro[3.4]octan-6-yl]pyridine-2-carbonitrile], for which the figures for the IC50 in test [1] and in test [4] were 363 nM and 282 nM, respectively. The Emax in test [1] (setting [5]) was determined as 98%; in test [2] it was 0.7%; in test [3] it was 0.2%; in test [4] (setting [5]), 98.2%. The EC50 in test [2] (setting [6]) and in test [3] (setting [7]) was > 15100 nM in each case.

As to `N#Cc1ncc(N2C(=O)C3(CCC3)N(c3ccc(OC4CCN(CCO)CC4)cc3)C2=S)cc1C(F)(F)F` [Cpd 51, 5-[8-[4-[[1-(2-hydroxyethyl)-4-piperidyl]oxy]phenyl]-5-oxo-7-thioxo-6,8-diazaspiro[3.4]octan-6-yl]-3-(trifluoromethyl)pyridine-2-carbonitrile], the values for the IC50 in test [1] and in test [4] were 389 nM and 200 nM, respectively. In addition, the Emax in test [1] came out at 99%; in test [2], 0.8%; in test [3] it was 0.2%; in test [4], 101%. Moreover, the EC50 in test [2] and in test [3] was > 15100 nM each time.

For the compound `N#Cc1ncc(N2C(=O)C3(CCC3)N(c3ccc(C(=O)N4CCCC4)c(F)c3)C2=S)cc1C(F)(F)F` [Cpd 52, 5-[8-[3-fluoro-4-(pyrrolidine-1-carbonyl)phenyl]-5-oxo-7-thioxo-6,8-diazaspiro[3.4]octan-6-yl]-3-(trifluoromethyl)pyridine-2-carbonitrile], the IC50 in test [1] is 741 nM; in test [4], 468 nM. Also, the Emax in test [1] (setting [5]) was 101%; in test [2] (setting [8]), 0.4%; in test [3] (setting [8]), 0.4%; in test [4] (setting [5]) it was 102%. In addition, the EC50 in test [2] (setting [6]) and in test [3] (setting [7]) was > 15100 nM throughout.

As to `N#Cc1ncc(N2C(=O)C3(CCC3)N(c3ccc(C(=O)NCc4ccc(Cl)cc4)c(F)c3)C2=S)cc1C(F)(F)F` [Cpd 53, N-[(4-chlorophenyl)methyl]-4-[6-[6-cyano-5-(trifluoromethyl)-3-pyridyl]-5-oxo-7-thioxo-6,8-diazaspiro[3.4]octan-8-yl]-2-fluoro-benzamide], the IC50 was 912 nM in test [1] and 646 nM in test [4]. The Emax in test [1] (setting [5]) worked out at 97%; in test [2] (setting [8]) it was 1%; in test [3] (setting [8]), 0.5%; in test [4] (setting [5]), 96.7%. Also, the EC50 in test [2] (setting [6]) and in test [3] (setting [7]) was > 15100 nM throughout.

Regarding `N#Cc1ncc(N2C(=O)C3(CCC3)N(c3ccc(C(=O)NCc4cnccn4)c(F)c3)C2=S)cc1C(F)(F)F` [Cpd 54, 4-[6-[6-cyano-5-(trifluoromethyl)-3-pyridyl]-5-oxo-7-thioxo-6,8-diazaspiro[3.4]octan-8-yl]-2-fluoro-N-(pyrazin-2-ylmethyl)benzamide], the IC50 in test [1] is 380 nM; in test [4], 219 nM. For the same compound, the Emax in test [1] (setting [5]) stood at 101%; in test [2] (setting [8]), 0.1%; in test [3] (setting [8]), 0.5%; in test [4] (setting [5]), 98.9%. Besides, the EC50 in test [2] (setting [6]) and in test [3] (setting [7]) was > 15100 nM throughout.

On to `N#Cc1ncc(N2C(=O)C3(CCC3)N(c3ccc(OCCCN4CCCC4)c(F)c3)C2=S)cc1C(F)(F)F` [Cpd 55, 5-[8-[3-fluoro-4-(3-pyrrolidin-1-ylpropoxy)phenyl]-5-oxo-7-thioxo-6,8-diazaspiro[3.4]octan-6-yl]-3-(trifluoromethyl)pyridine-2-carbonitrile], for which the figures for the IC50 in test [1] and in test [4] were 813 nM and 316 nM, respectively. Moreover, the Emax was found to be 101% in test [1], 0.7% in test [2], 0.6% in test [3] and 100% in test [4]. The EC50 in test [2] and in test [3] was > 15100 nM in each case.
